Results: patent publication US11241441B2, “Formulations of lixivaptan for the treatment of polycystic disease” (PALLADIO BIOSCIENCES, INC., priority 2017, dated 2022)
Read-outs that look alike come from different tables or passages of the source.

What was measured:
vasopressin V2 receptor = biological target: T1, vasopressin V2 receptor (Homo sapiens, UniProt P30518); assay: In-clinic pharmacokinetic study: spot urine osmolality after twice daily lixivaptan; format: in vivo
T1 construct: Lixivaptan antagonizes the effects of vasopressin that are mediated by the V2 receptor; from tissue; host or cells: living human subjects (in vivo clinical studies); the receptor is the subjects' own and no tissue was isolated
Method: Subjects received lixivaptan at total daily doses of 100 mg, 200 mg, or 400 mg (administered as 50, 100, and 200 mg Q12H). […] There were to be approximately 20 subjects enrolled per dose level. An approximately equal number of males and females were enrolled at each dose level such that neither gender was represented by fewer than 8 subjects. The starting date for each cohort subjects was staggered by 7 days for logistical purposes. Screening evaluations were performed within 28 days prior to Day 1.
The following doses of lixivaptan were administered to subjects in this study: (a) Lixivaptan 100 mg, administered as 50 mg [1×50 mg capsule] every 12 hours×15 doses; (b) lixivaptan 200 mg, administered as 100 mg [2×50 mg capsules] every 12 hours×15 doses; and (c) Lixivaptan 400 mg, administered as 200 mg [4×50 mg capsules] every 12 hours×15 doses.
Prior to the morning doses of lixivaptan on Days 1 and 8, subjects fasted for approximately 10 hours prior to lixivaptan administration and 4 hours after lixivaptan administration. All other doses were administered under fasting conditions, either 2 hours before or 2 hours after meals. The study medication was administered with 240 milliliters (mL) room temperature water. Subjects were not to receive any oral fluids, other than those used to administer the dose, for 1 hour before and 1 hour after dose administration. Subjects remained sitting or semi-supine, except to void, for 6 hours following the first two doses. While in the clinic, the subjects refrained from strenuous physical activity.
Spot urine collections for urine osmolality determinations were obtained during the clinic stay and at the end of study (EOS).
Spot urine osmolality was evaluated at different times during the day.

cAMP = assay: Cyclic AMP content of whole kidneys of PCK rats (Direct cAMP ELISA); format: in vivo, rat; details: for cAMP: whole kidney
Method: Experimental animals and study design. PCK rats were divided into control and treatment groups at four weeks of age (n=59, ˜10 animals per treatment group and gender). Lixivaptan was dissolved in DMSO and added to ground rodent chow (Regrind Labdiet 5053) at 0.5% or 1.0% concentration (w/w) by homogenous mixing, whereas control animals received the same diet without lixivaptan. Animals were exposed to control- or lixivaptan-diet for eight weeks and were sacrificed at twelve weeks of age.
Experimental Protocol. Twenty-four hour urine outputs in metabolic cages were collected twice at 6 and 9 weeks of age (Study week 3 and 6, respectively). At the end of the dosing period, the animals were weighed and anesthetized with ketamine 90 mg/kg and xylazine 10 mg/kg, IP. Blood samples were obtained by cardiac puncture for determination of plasma electrolytes, creatinine and plasma urea levels. The right kidney and part of the liver were placed into pre-weighed vials containing 10% formaldehyde in phosphate buffer (pH 7.4). The tissues were embedded in paraffin for histological studies. The left kidneys were immediately frozen in liquid nitrogen for determination of cAMP.
The kidneys were weighed and ground to fine powder under liquid nitrogen in a stainless steel mortar and homogenized in 10 volumes of 0.1M HCl. The protein concentration was measured by using BCA Protein Assay Kit (Pierce, Ill.). After centrifugation at 600 g for 10 min, the supernatant was further diluted in 0.1M HCl and run directly in the assay or stored frozen for later analysis. The cAMP content was assessed by Direct cAMP ELISA kit, according to the manufacturer's instructions (Enzo Life Sciences, Inc. Farmingdale, N.Y.). Samples were taken in triplicate. The results were expressed in pmol/mg of protein.

[1] = Single 100 mg oral dose study in ESRD and normal renal function subjects: pharmacokinetics and tolerability; format: in vivo, human; details: for AUC(0-inf) / AUC(0-t) / Cmax / Vd/F / half-life: po, 100 mg; for Vd/F: read-out: VZ/F Mean; for half-life: read-out: t1/2 Median (converted)
Method: A clinical study was undertaken to determine the pharmacokinetics (PK) of lixivaptan in renally impaired subjects. In this study, the PK of lixivaptan following a single 100 mg oral dose of lixivaptan was evaluated in subjects with end-stage renal disease (ESRD) and control subjects with normal renal function. Pharmacodynamic (PD) evaluations, including vasopressin concentration, serum sodium concentration, urine volume, and urine osmolality were assessed. Overall total lixivaptan exposure was, on average, 32 and 31% lower in ESRD subjects compared to subjects with normal renal function, as assessed by AUC0-∞ and AUC0-t, respectively. Similarly, peak total lixivaptan concentrations were, on average, 31% lower in subjects with ESRD.

[2] = human, in vivo, single 100 mg oral dose, ESRD
[3] = human, in vivo, single 100 mg oral dose, Normal
[4] = single 100 mg oral dose, Normal

T1 sequence (P30518 whole entry): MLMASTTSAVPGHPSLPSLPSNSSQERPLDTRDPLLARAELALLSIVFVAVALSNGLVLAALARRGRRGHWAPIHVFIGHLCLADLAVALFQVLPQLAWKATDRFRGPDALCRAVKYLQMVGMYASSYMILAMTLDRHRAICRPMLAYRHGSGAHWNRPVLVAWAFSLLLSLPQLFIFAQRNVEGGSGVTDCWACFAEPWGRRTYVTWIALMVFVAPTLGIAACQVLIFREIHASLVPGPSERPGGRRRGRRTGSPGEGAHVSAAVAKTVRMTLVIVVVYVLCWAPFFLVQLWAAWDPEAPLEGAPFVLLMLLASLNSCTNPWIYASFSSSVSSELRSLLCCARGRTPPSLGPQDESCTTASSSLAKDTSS

Cc1ccc(F)cc1C(=O)Nc1ccc(C(=O)N2Cc3cccn3Cc3ccccc32)c(Cl)c1 [Lixivaptan, 5-fluoro-2-methyl-N-[4-(5H-pyrrolo[2,1-C] [1,4]benzodiazepin-10(11H)-ylcarbonyl)-3-chlorophenyl]benzamide]
% of subjects with full 24 hour suppression of Uosm to 300 mOsm/kg or lower (vasopressin V2 receptor; 50 mg lixivaptan twice daily): approximately 16%
Urine Osmolality Mean (vasopressin V2 receptor; 100 mg as 50 mg Q12H, Day 1 Hour 1): 250.9 mOsm/kg
Urine Osmolality Mean (vasopressin V2 receptor; 100 mg as 50 mg Q12H, Day 1 Hour 2): 79.8 mOsm/kg
Urine Osmolality Mean (vasopressin V2 receptor; 100 mg as 50 mg Q12H, Day 1 Hour 4): 150.6 mOsm/kg
Urine Osmolality Mean (vasopressin V2 receptor; 100 mg as 50 mg Q12H, Day 1 Hour 12): 378.7 mOsm/kg
Urine Osmolality Mean (vasopressin V2 receptor; 100 mg as 50 mg Q12H, Day 8 Hour 0): 464.7 mOsm/kg
Urine Osmolality Mean (vasopressin V2 receptor; 100 mg as 50 mg Q12H, Day 8 Hour 1): 222.5 mOsm/kg
Urine Osmolality Mean (vasopressin V2 receptor; 100 mg as 50 mg Q12H, Day 8 Hour 2): 139.1 mOsm/kg
Urine Osmolality Mean (vasopressin V2 receptor; 100 mg as 50 mg Q12H, Day 8 Hour 4): 274.3 mOsm/kg
Urine Osmolality Mean (vasopressin V2 receptor; 100 mg as 50 mg Q12H, Day 8 Hour 12): 447.4 mOsm/kg
Urine Osmolality Mean (vasopressin V2 receptor; 100 mg as 50 mg Q12H, Day 9 Hour 24 after dosing): 564.7 mOsm/kg
Urine Osmolality Mean (vasopressin V2 receptor; 100 mg as 50 mg Q12H, EOS (end of study, Day 29)): 805.5 mOsm/kg
% of subjects with full 24 hour suppression of Uosm to 300 mOsm/kg or lower (vasopressin V2 receptor; 100 mg twice daily): approximately 46%
Urine Osmolality Mean (vasopressin V2 receptor; 200 mg as 100 mg Q12H, Day 1 Hour 1): 285.9 mOsm/kg
Urine Osmolality Mean (vasopressin V2 receptor; 200 mg as 100 mg Q12H, Day 1 Hour 2): 76.9 mOsm/kg
Urine Osmolality Mean (vasopressin V2 receptor; 200 mg as 100 mg Q12H, Day 1 Hour 4): 136.5 mOsm/kg
Urine Osmolality Mean (vasopressin V2 receptor; 200 mg as 100 mg Q12H, Day 1 Hour 12): 369.9 mOsm/kg
Urine Osmolality Mean (vasopressin V2 receptor; 200 mg as 100 mg Q12H, Day 8 Hour 0): 323.6 mOsm/kg
Urine Osmolality Mean (vasopressin V2 receptor; 200 mg as 100 mg Q12H, Day 8 Hour 1): 156.7 mOsm/kg
Urine Osmolality Mean (vasopressin V2 receptor; 200 mg as 100 mg Q12H, Day 8 Hour 2): 93.9 mOsm/kg
Urine Osmolality Mean (vasopressin V2 receptor; 200 mg as 100 mg Q12H, Day 8 Hour 4): 186.7 mOsm/kg
Urine Osmolality Mean (vasopressin V2 receptor; 200 mg as 100 mg Q12H, Day 8 Hour 12): 334.7 mOsm/kg
Urine Osmolality Mean (vasopressin V2 receptor; 200 mg as 100 mg Q12H, Day 9 Hour 24 after dosing): 465.9 mOsm/kg
Urine Osmolality Mean (vasopressin V2 receptor; 200 mg as 100 mg Q12H, EOS (end of study, Day 29)): 694.1 mOsm/kg
% of subjects with full 24 hour suppression of Uosm to 300 mOsm/kg or lower (% responders) (vasopressin V2 receptor; 200 mg twice daily): approximately 78%
Urine Osmolality Mean (vasopressin V2 receptor; 400 mg as 200 mg Q12H, Day 1 Hour 1): 237.4 mOsm/kg
Urine Osmolality Mean (vasopressin V2 receptor; 400 mg as 200 mg Q12H, Day 1 Hour 2): 74.5 mOsm/kg
Urine Osmolality Mean (vasopressin V2 receptor; 400 mg as 200 mg Q12H, Day 1 Hour 4): 91.0 mOsm/kg
Urine Osmolality Mean (vasopressin V2 receptor; 400 mg as 200 mg Q12H, Day 1 Hour 12): 294.1 mOsm/kg
Urine Osmolality Mean (vasopressin V2 receptor; 400 mg as 200 mg Q12H, Day 8 Hour 0): 231.0 mOsm/kg
Urine Osmolality Mean (vasopressin V2 receptor; 400 mg as 200 mg Q12H, Day 8 Hour 1): 106.9 mOsm/kg
Urine Osmolality Mean (vasopressin V2 receptor; 400 mg as 200 mg Q12H, Day 8 Hour 2): 82.3 mOsm/kg
Urine Osmolality Mean (vasopressin V2 receptor; 400 mg as 200 mg Q12H, Day 8 Hour 4): 139.1 mOsm/kg
Urine Osmolality Mean (vasopressin V2 receptor; 400 mg as 200 mg Q12H, Day 8 Hour 12): 219.5 mOsm/kg
Urine Osmolality Mean (vasopressin V2 receptor; 400 mg as 200 mg Q12H, Day 9 Hour 24 after dosing): 390.3 mOsm/kg
Urine Osmolality Mean (vasopressin V2 receptor; 400 mg as 200 mg Q12H, EOS (end of study, Day 29)): 704.8 mOsm/kg
time of mean maximal reduction of urine osmolality (vasopressin V2 receptor; after first dose on Day 1 and Day 8, regardless of the dose): 2 h
Urine Osmolality Mean (vasopressin V2 receptor; healthy subjects, 100 mg as 50 mg Q12H, Day 1 Hour 0 (baseline)): 587.8 mOsm/kg
Urine Osmolality Mean (vasopressin V2 receptor; healthy subjects, 200 mg as 100 mg Q12H, Day 1 Hour 0 (baseline)): 602.7 mOsm/kg
Urine Osmolality Mean (vasopressin V2 receptor; healthy subjects, 400 mg as 200 mg Q12H, Day 1 Hour 0 (baseline)): 600.1 mOsm/kg
reduction in kidney cAMP levels (cAMP; PCK rats, 0.5% lixivaptan, compared to control): 23%
cAMP (cAMP; PCK rats F, 0.5% Lixivaptan): 15.0 ± 4.6 pmol/mg protein
cAMP (cAMP; PCK rats F, 1.0% Lixivaptan): 23.6 ± 8.1 pmol/mg protein
cAMP (cAMP; PCK rats M, 0.5% Lixivaptan): 16.5 ± 5.1 pmol/mg protein
cAMP (cAMP; PCK rats M, 1.0% Lixivaptan): 24.0 ± 12.0 pmol/mg protein
tolerability of single doses ([1]; both groups (normal, ESRD)): well tolerated
AUC(0-inf) [1, 2]: 856 ng·h/mL
AUC(0-t) [1, 2]: 809 ng·h/mL
Cmax [1, 2]: 238 ng/mL
Vd/F [1, 2]: 2740 L
half-life [1, 2]: 13.3 h
AUC(0-t) [1, 3]: 1200 ng·h/mL
Cmax [1, 3]: 383 ng/mL
AUC(0-inf) ([1]; human, in vivo, single 100 mg oral dose, Normal renal function): 1290 ng·h/mL
Vd/F [1, 3]: 1750 L
half-life [1, 3]: 12 h
Tmax ([1]; human, in vivo, single 100 mg oral dose, Normal, read-out: tmax Median): 1 h
peak total lixivaptan concentrations lower in subjects with ESRD ([1]; single 100 mg oral dose): 31%
total lixivaptan exposure (AUC0-t) lower in ESRD subjects compared to normal renal function ([1]; single 100 mg oral dose): 31%
total lixivaptan exposure (AUC0-∞) lower in ESRD subjects compared to normal renal function ([1]; single 100 mg oral dose): 32%
CL/F Mean ([1]; single 100 mg oral dose, ESRD): 137 L/h
Lambdaz Median ([1]; single 100 mg oral dose, ESRD): 0.05752 h⁻¹
CL/F Mean [1, 4]: 94.2 L/h
Lambdaz Median [1, 4]: 0.06035 h⁻¹
